According to patent US7446199B2, “Compositions useful as inhibitors of protein kinases” (Vertex Pharmaceuticals Incorporated, priority 2003, dated 2008):

What was measured:
[1] = target: KDR (Homo sapiens, UniProt P35968); experiment: KDR enzyme assay, coupled enzyme assay; assay type: biochemical; settings: 300 μM ATP, 10 μM poly E4Y, 30 nM KDR, 37° C.
In short: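 Coupled enzyme (PK/LDH, NADH) assay with 30 nM KDR in 200 mM HEPES 7.5, 10 mM MgCl2, 25 mM NaCl, 1 mM DTT, 1.5% DMSO; 300 μM ATP, 10 μM poly E4Y. Compound at 30 μM final, preincubated ~10 min at 37 °C before ATP start; rates read over 5 min at 37 °C.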

[2] = target: T1, FLT-3 (Homo sapiens, UniProt P36888); experiment: Inhibition of FLT-3, radiometric filter-binding assay; assay type: biochemical; settings: 90 μM ATP, 0.5 mg/mL pE4Y, room temperature
T1 construct: 0.02% BSA and 3 nM FLT-3
T1 sequence (P36888 27-993): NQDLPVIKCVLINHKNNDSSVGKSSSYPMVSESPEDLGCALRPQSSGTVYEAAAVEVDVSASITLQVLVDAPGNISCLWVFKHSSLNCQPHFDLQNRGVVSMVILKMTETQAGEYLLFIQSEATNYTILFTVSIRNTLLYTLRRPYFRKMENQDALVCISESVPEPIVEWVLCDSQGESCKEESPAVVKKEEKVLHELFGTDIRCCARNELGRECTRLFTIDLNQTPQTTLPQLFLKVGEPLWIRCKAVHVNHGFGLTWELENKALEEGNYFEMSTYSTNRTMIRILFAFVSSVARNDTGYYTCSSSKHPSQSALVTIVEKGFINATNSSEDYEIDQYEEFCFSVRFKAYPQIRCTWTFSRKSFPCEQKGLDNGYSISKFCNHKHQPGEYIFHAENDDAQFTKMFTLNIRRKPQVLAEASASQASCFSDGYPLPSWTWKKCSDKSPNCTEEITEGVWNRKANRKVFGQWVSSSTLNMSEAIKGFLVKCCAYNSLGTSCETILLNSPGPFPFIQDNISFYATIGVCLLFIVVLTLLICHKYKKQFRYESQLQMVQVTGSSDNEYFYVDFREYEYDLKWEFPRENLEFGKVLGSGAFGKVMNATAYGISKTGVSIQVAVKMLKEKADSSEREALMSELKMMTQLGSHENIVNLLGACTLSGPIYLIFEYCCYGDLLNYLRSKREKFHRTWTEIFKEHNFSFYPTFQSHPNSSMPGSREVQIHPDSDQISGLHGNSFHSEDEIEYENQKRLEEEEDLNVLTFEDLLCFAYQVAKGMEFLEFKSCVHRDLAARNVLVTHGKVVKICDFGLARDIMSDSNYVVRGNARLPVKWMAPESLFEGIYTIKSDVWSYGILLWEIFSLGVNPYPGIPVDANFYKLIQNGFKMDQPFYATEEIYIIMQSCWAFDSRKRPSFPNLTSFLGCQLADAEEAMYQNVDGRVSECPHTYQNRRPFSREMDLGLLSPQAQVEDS
In short: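 Radiometric filter-binding assay of FLT-3 (3 nM in Solution 2; final conc not stated) phosphorylating poly(Glu,Tyr) 4:1 (0.5 mg/mL) with 90 μM ATP plus [γ-33P]ATP, in HEPES pH 7.5, MgCl2, NaCl, DTT, BSA, 2.5% DMSO. 12-point titration, typically 0.01–5 μM, 20 min at room temperature; TCA-stopped, filtered, scintillation-counted; IC50 or Ki fitted.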

KDR, sequence (P35968 20-1356): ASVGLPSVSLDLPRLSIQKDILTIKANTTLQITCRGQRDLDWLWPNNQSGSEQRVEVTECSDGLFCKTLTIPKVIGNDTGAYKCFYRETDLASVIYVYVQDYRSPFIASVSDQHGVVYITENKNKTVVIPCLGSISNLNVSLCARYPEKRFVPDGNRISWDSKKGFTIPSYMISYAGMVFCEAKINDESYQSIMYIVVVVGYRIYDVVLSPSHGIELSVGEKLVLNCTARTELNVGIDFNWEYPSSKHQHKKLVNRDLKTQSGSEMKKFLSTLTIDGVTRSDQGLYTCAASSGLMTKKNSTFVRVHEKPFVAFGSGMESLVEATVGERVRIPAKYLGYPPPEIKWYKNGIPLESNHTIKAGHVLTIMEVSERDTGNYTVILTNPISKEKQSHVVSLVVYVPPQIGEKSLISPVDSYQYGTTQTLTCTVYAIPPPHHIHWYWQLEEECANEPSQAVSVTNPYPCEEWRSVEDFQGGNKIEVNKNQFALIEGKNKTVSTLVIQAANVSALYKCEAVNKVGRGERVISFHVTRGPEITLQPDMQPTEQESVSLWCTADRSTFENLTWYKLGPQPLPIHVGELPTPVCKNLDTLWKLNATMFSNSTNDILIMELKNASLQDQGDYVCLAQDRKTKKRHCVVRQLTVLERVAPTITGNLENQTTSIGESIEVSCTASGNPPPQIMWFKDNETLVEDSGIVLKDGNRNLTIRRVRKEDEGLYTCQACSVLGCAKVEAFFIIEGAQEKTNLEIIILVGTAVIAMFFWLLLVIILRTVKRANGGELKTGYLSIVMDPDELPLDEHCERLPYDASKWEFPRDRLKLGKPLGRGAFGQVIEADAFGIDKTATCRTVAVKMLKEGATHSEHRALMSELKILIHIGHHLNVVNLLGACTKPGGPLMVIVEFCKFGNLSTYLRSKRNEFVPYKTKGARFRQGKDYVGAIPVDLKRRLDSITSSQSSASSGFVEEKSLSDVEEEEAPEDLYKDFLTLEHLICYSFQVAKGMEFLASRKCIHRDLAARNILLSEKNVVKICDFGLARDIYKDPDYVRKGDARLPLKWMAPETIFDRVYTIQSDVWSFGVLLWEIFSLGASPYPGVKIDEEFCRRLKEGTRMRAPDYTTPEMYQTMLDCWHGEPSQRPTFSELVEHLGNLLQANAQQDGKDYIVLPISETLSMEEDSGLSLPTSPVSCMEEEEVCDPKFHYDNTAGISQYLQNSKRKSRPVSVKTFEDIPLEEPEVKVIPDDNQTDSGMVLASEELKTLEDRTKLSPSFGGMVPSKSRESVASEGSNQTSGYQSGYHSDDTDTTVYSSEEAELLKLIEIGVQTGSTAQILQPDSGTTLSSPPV

Ki [1] [nM] | Ki [2] [nM] | SMILES
 | 1000 to 12500 | Fc1cccc(-c2cnoc2-c2c[nH]c3ccc(-c4ccncc4)cc23)c1F [Compound 34, 3-[4-(2,3-Difluoro-phenyl)-isoxazol-5-yl]-5-pyridin-4-yl-1H-indole]
200 to 1000 | 1000 to 12500 | Fc1cccc(-c2cnoc2-c2c[nH]c3ncc(Cl)cc23)c1F [Compound 44, 3-[4-(2,3-Difluoro-phenyl)-isoxazol-5-yl]-5-chloro-1H-pyrrolo[2,3-b]pyridine]
200 to 1000 | 1000 to 12500 | Fc1cnc2[nH]cc(-c3oncc3-c3cccc(F)c3F)c2c1 [Compound 45, 3-[4-(2,3-Difluoro-phenyl)-isoxazol-5-yl]-5-fluoro-1H-pyrrolo[2,3-b]pyridine]
200 to 1000 | 200 to 1000 | Cc1cnc2[nH]cc(-c3oncc3-c3cccc(F)c3F)c2c1 [Compound 46, 3-[4-(2,3-Difluoro-phenyl)-isoxazol-5-yl]-5-methyl-1H-pyrrolo[2,3-b]pyridine]
200 to 1000 | 1000 to 12500 | OCc1cnc2[nH]cc(-c3oncc3-c3cccc(F)c3F)c2c1 [Compound 55, {3-[4-(2,3-Difluoro-phenyl)-isoxazol-5-yl]-1H-pyrrolo[2,3-b]pyridin-5-yl}-methanol]
 | 200 to 1000 | Fc1cccc(-c2cnoc2-c2c[nH]c3nc(Cl)c(-c4ccncc4)cc23)c1F [Compound 103, 6-Chloro-3-[4-(2,3-difluoro-phenyl)-isoxazol-5-yl]-5-pyridin-4-yl-1H-pyrrolo[2,3-b]pyridine]
200 to 1000 | < 200 | NC(=O)c1ccc(-c2cnc3[nH]cc(-c4oncc4-c4cccc(F)c4F)c3c2)cc1 [Compound 153]
< 200 | < 200 | C[N+]1(C)CCN(c2ccc(-c3cnc4[nH]cc(-c5oncc5-c5cccc(F)c5F)c4c3)cc2)CC1 [Compound 155]

Further lines, the molecule ahead of its results:

SMILES | Ki [1] [nM] | Ki [2] [nM]
CN1CCN(C(=O)[C@H]2C[C@@H]2c2cnc3[nH]cc(-c4oncc4-c4cccc(F)c4F)c3c2)CC1 (relative stereo) [Compound 142, trans-(2-{3-[4-(2,3-Difluoro-phenyl)-isoxazol-5-yl]-1H-pyrrolo[2,3-b]pyridin-5-yl}-cyclopropyl)-(4-methyl-piperazin-1-yl)-methanone] | 200 to 1000 | < 200
Fc1cccc(-c2cnoc2-c2n[nH]c3ncccc23)c1F [Compound 31, 3-(4-(2,3-difluorophenyl)isoxazol-5-yl)-1H-pyrazolo[3,4-b]pyridine] | 1000 to 12500 | 1000 to 12500
c1ccc(-c2cnoc2-c2c[nH]c3ncccc23)cc1 [Compound 35, 3-[4-Phenyl-isoxazol-5-yl]-1H-pyrrolo[2,3-b]pyridine] | 200 to 1000 | 
Fc1cc(F)c(F)c(-c2cnoc2-c2c[nH]c3ncccc23)c1 [Compound 39, 3-[4-(2,3,5-Trifluoro-phenyl)-isoxazol-5-yl]-1H-pyrrolo [2,3-b]pyridine] | 1000 to 12500 | 1000 to 12500
Fc1ccc(F)c(-c2cnoc2-c2c[nH]c3ncccc23)c1F [Compound 41, 3-[4-(2,3,6-Trifluoro-phenyl)-isoxazol-5-yl]-1H-pyrrolo [2,3-b]pyridine] | 1000 to 12500 | 1000 to 12500
O=C(c1cnc2[nH]cc(-c3oncc3-c3cccc(F)c3F)c2c1)N1CCCC1 [Compound 104, {3-[4-(2,3-Difluoro-phenyl)-isoxazol-5-yl]-1H-pyrrolo[2,3-b]pyridin-5-yl}-pyrrolidin-1-yl-methanone] | 200 to 1000 | 1000 to 12500
COc1cnc2[nH]cc(-c3nncn3-c3cccc(F)c3F)c2c1 [Compound 108, 3-[4-(2,3-Difluoro-phenyl)-4H-[1,2,4]triazol-3-yl]-5-methoxy-1H-pyrrolo[2,3-b]pyridine] |  | 1000 to 12500
Fc1cccc(-n2cnnc2-c2c[nH]c3ncc(-c4ccc(N5CCNCC5)nc4)cc23)c1F [Compound 111, 3-[4-(2,3-Difluoro-phenyl)-4H-[1,2,4]triazol-3-yl]-5-(6-piperazin-1-yl-pyridin-3-yl)-1H-pyrrolo[2,3-b]pyridine] | 1000 to 12500 | 1000 to 12500
Fc1cccc(-c2cnoc2-c2c[nH]c3ncc(CCn4cncn4)cc23)c1F [Compound 132, 3-[4-(2,3-Difluoro-phenyl)-isoxazol-5-yl]-5-(2-[1,2,4]triazol-1-yl-ethyl)-1H-pyrrolo[2,3-b]pyridine] | 1000 to 12500 | 200 to 1000
CN(C)C1CCC(c2cnc3[nH]cc(-c4oncc4-c4cccc(F)c4F)c3c2)CC1 (stereo not shown) [Compound 141, (4-{3-[4-(2,3-Difluoro-phenyl)-isoxazol-5-yl]-1H-pyrrolo[2,3-b]pyridin-5-yl}-cyclohexyl)-dimethylamine] | 1000 to 12500 | 200 to 1000
OB(O)c1cnc2[nH]cc(-c3oncc3-c3cccc(F)c3F)c2c1 [Compound 154] | < 200 | 200 to 1000
